How the values were obtained:
[1] = test system: iCell microglia (human iPSC derived microglia); assay: CellTiter Glo 2.0 viability assay, iCell human microglia, CSF1 stimulation; assay type: cell-based; conditions: 1.5625-200 nM, CSF1 100 ng/mL 24 hours
Procedure: (§1) iCell microglia (human iPSC derived microglia) were acquired from FujiFilm (cat #C1110, lot #105458). These cells were thawed and maintained in iCell Microglia Complete Media according the manufacture instructions. For this assay, iCell microglia were resuspended at a concentration of 5×10^5 cells/mL and 100 μL of this cell suspension was added to the inner 60 wells of a 96-well plate. iCell microglia were allowed to rest overnight at 37° C., 5% CO2. The following evening, the media was removed and replaced with Neurobasal Media (Gibco, cat #21103049) containing B27 supplement (Gibco, cat #17504044). Again, cells were allowed to rest overnight at 37° C., 5% CO2. […] Cells were then stimulated with 100 ng/mL recombinant human CSF1 for 24 hours. After stimulation, the culture supernatant was removed from each well and aliquoted into two different 96-well plates for subsequent ELISA assays.
Cell viability was determined using the CellTiter Glo 2.0 Luminescent Cell Viability Assay (Promega, cat #G9242). […] 100 μL was transferred from each well to a white plate and luminescence was read immediately on the FlexStation3 Multi-Mode Microplate Reader (Molecular Devices, cat #Flex3) with SoftMax Pro Software.
(§2) iCell microglia (human iPSC derived microglia) were plated at 50,000 cells per well and rested overnight. […] Cell viability was assessed utilizing Promega's Cell Titer Glo Assay Kit. […]

[2] = test system: MCP-1 production in iCell microglia (human iPSC derived microglia); assay: MCP-1 ELISA, iCell human microglia, CSF1 stimulation; assay type: cell-based; conditions: 1.5625-200 nM, CSF1 100 ng/mL 24 hours
Procedure: as §1
Culture supernatants were assayed with the Quantikine Human MCP-1 ELISA kit (R&D Systems, cat #SCP00). […] After incubation, fifty microliters of the acid stop solution was added to each well, and the plate was read on the FlexStation3 Multi-Mode Microplate Reader (Molecular Devices, cat #Flex3) with SoftMax Pro Software at 450 nm.
as §2

`[2H]c1nc2cccnc2n1Cc1cc(OC)c2c(c1)O[C@@H](C)[C@H](c1ccc(OC)nc1)O2` [Compound 6, 3-(((2S,3S)-8-methoxy-2-(6-methoxypyridin-3-yl)-3-methyl-2,3-dihydrobenzo[b][1,4]dioxin-6-yl)methyl)-3H-imidazo[4,5-b]pyridine-2-d] was tested, and the human microglia viability [1] was “did not impact human microglia viability at the concentrations assessed” and the MCP1 production [2] was “significantly reduced MCP1 production in a concentration dependent manner”.
